# Laboratory results from EPA's ToxRefDB 2.
# Legend:
# [1] = system: dog; conditions: Chronic toxicity; beagle; Oral; Gavage/Intubation; dose end: 364 day; group: systemic; systemic / in life observation / body weight / body weight + systemic / in life observation / clinical signs / arrhythmia + systemic / in …
# [2] = system: rat; conditions: Sub-acute repeat dose toxicity, sprague dawley, Oral, Gavage/Intubation, dose end: 30 day, group: systemic
# [3] = system: rabbit; conditions: Sub-acute repeat dose toxicity; new zealand white; Oral; Gavage/Intubation; dose end: 5 day; group: systemic; systemic / in life observation / body weight / body weight + systemic / in life observation / food consumption / food consumption
# [4] = system: dog; conditions: Sub-acute repeat dose toxicity; beagle; Oral; Gavage/Intubation; dose end: 30 day; group: systemic; systemic / clinical chemistry / potassium / potassium + systemic / in life observation / clinical signs / emesis + systemic / in life …
# [5] = system: rat; conditions: Fertility (Segment I), sprague dawley, Oral, Gavage/Intubation, dose end: 1 generation, group: parental
# [6] = system: rabbit; conditions: Prenatal developmental toxicity study, Oral, Gavage/Intubation, dose end: 19 GD
# [7] = system: mouse; conditions: Sub-acute repeat dose toxicity, Oral, Feed, dose end: 14 day, group: systemic
# [8] = system: rat; conditions: Sub-acute repeat dose toxicity, sprague dawley, Oral, Gavage/Intubation, dose end: 14 day, group: systemic
# [9] = system: rat; conditions: Sub-acute repeat dose toxicity, sprague dawley, Oral, Feed, dose end: 14 day, group: systemic
# [10] = system: rat; conditions: Fertility (Segment I), sprague dawley, Oral, Gavage/Intubation, dose end: 1 generation, group: parental; remark: listed apart in the source
# [11] = system: dog; conditions: Sub-acute repeat dose toxicity; beagle; Oral; Gavage/Intubation; dose end: 10 day; group: systemic; systemic / in life observation / clinical signs / abnormal feces + systemic / in life observation / clinical signs / salivation + systemic…
# [12] = system: rat; conditions: Chronic toxicity; sprague dawley; Oral; Gavage/Intubation; dose end: 182 day; group: systemic; systemic / clinical chemistry / glucose / glucose + systemic / clinical chemistry / triglycerides / triglycerides + systemic / in life …
# [13] = system: dog; conditions: Chronic toxicity; beagle; Oral; Feed; dose end: 52 week; group: systemic; systemic / clinical chemistry / creatinine / creatinine + systemic / clinical chemistry / urea nitrogen / urea + systemic / pathology …
# [14] = system: rat; conditions: Subchronic oral toxicity in rodents, sprague dawley, Gavage/Intubation, dose end: 28 day, group: systemic
# [15] = system: rat; conditions: Subchronic oral toxicity in rodents, sprague dawley, Feed, dose end: 28 day, group: systemic
# [16] = system: rabbit; conditions: Prenatal developmental toxicity study, other, Oral, Gavage/Intubation, dose end: 19 GD
# [17] = system: rat; conditions: Subchronic oral toxicity in rodents, sprague dawley, Feed, dose end: 3 month, group: systemic
# [18] = system: rat; conditions: Subchronic dermal toxicity, sprague dawley, Topical, dose end: 28 day, group: systemic, systemic / clinical chemistry / alkaline phosphatase (alp/alk) / alkaline phosphatase (alp/alk) + systemic / clinical chemistry / glucose / …
# [19] = system: mouse; conditions: Subchronic oral toxicity in rodents, other, Feed, dose end: 13 week, group: systemic
# [20] = system: rat; conditions: Combined chronic toxicity/carcinogenicity; sprague dawley; Oral; Feed; dose end: 24 month; group: systemic; systemic / pathology microscopic / kidney / infiltration cellular + systemic / pathology microscopic / kidney / nephropathy
# [21] = system: dog; conditions: Subchronic oral toxicity in nonrodent, beagle, Feed, dose end: 13 week, group: systemic, systemic / clinical chemistry / alanine aminotransferase (alt/sgpt) / alanine aminotransferase (alt/sgpt) + systemic / clinical chemistry / …
# [22] = system: mouse; conditions: Other (NonGuideline or Guideline Not Listed), Oral, Feed, dose end: 59 day, group: cannot be grouped
# [23] = system: rabbit; conditions: Prenatal developmental toxicity study, himalayan, Oral, Gavage/Intubation, dose end: 19 GD
# [24] = system: mouse; conditions: Carcinogenicity, other, Oral, Feed, dose end: 78 week, group: systemic
# [25] = system: rat; conditions: Prenatal developmental toxicity study, other, Oral, Gavage/Intubation, dose end: 15 GD
# [26] = system: dog; conditions: Subchronic oral toxicity in nonrodent, beagle, Feed, dose end: 28 day, group: systemic, systemic / in life observation / food consumption / food consumption + systemic / in life observation / body weight / body weight + systemic…
# [27] = system: rat; conditions: Prenatal developmental toxicity study, other, Oral, Gavage/Intubation, dose end: 15 GD; remark: listed apart in the source
# [28] = systemic / clinical chemistry / 5' nucleotidase / 5' nucleotidase + systemic / clinical chemistry / [other] / [other] + systemic / clinical …
# [29] = systemic / in life observation / body weight / body weight + systemic / in life observation / clinical signs / salivation + systemic / in …
# [30] = systemic / in life observation / body weight / body weight + systemic / in life observation / food consumption / food consumption
# [31] = group: developmental, developmental / developmental malformation / bone / delayed ossification + systemic / in life observation / body weight / fetal weight
# [32] = group: maternal, systemic / in life observation / body weight / body weight gain + systemic / in life observation / food consumption / food consumption
# [33] = systemic / in life observation / body weight / body weight + systemic / in life observation / body weight / body weight gain + systemic / in…
# [34] = systemic / hematology / erythrocyte (rbc) count differential / erythrocyte (rbc) + systemic / hematology / hematocrit (hct) / hematocrit (…
# [35] = systemic / in life observation / clinical signs / salivation
# [36] = systemic / in life observation / food consumption / food consumption + systemic / in life observation / body weight / body weight
# [37] = systemic / in life observation / food consumption / food consumption + systemic / in life observation / body weight / body weight + systemic…
# [38] = systemic / pathology microscopic / kidney / dilatation + systemic / pathology microscopic / adrenal gland / fatty change + systemic / in …
# [39] = systemic / pathology microscopic / kidney / [other] + systemic / pathology microscopic / kidney / dilatation + systemic / pathology …
# [40] = systemic / pathology microscopic / kidney / proliferation
# [41] = group: developmental, systemic / in life observation / body weight / fetal weight
# [42] = group: maternal, systemic / in life observation / body weight / body weight gain + systemic / in life observation / food consumption / food consumption + …
# [43] = systemic / pathology microscopic / kidney / hyalinization + systemic / pathology microscopic / kidney / lesion(s) (nos)
# [44] = systemic / pathology microscopic / kidney / hyalinization + systemic / pathology microscopic / kidney / lesion(s) (nos) + systemic / …
# [45] = systemic / pathology microscopic / liver / hypertrophy
# [46] = systemic / pathology microscopic / liver / hypertrophy + systemic / hematology / anemia / anemia - nos + systemic / hematology / erythrocyte…
# [47] = systemic / pathology microscopic / liver / proliferation + systemic / organ weight / liver / absolute + systemic / organ weight / liver / …
# [48] = group: developmental, developmental / developmental malformation / bone / fused + developmental / developmental malformation / bone / misshapen + developmental / …
# [49] = group: maternal, systemic / in life observation / food consumption / food consumption + reproductive / reproductive performance / postimplantation loss / …
# [50] = systemic / pathology microscopic / liver / hypertrophy + systemic / pathology microscopic / liver / infiltration cellular + systemic / …
# [51] = group: maternal, systemic / in life observation / body weight / body weight gain + systemic / in life observation / body weight / body weight + systemic / in…
# [52] = group: developmental, developmental / developmental malformation / bone / incomplete ossification + developmental / developmental malformation / bone / irregular …
# [53] = group: maternal, systemic / in life observation / body weight / body weight + systemic / in life observation / body weight / body weight gain + systemic / in…
smiles,measurement,setting,value
O=C(Cc1ccc(Cl)c(Cl)c1)N(O)[C@H](CN1CC[C@H](O)C1)c1ccccc1,LEL,[1],1 mg/kg/day
same,LOAEL,[1],> 1 mg/kg/day
same,NEL,[1],< 1 mg/kg/day
same,NOAEL,[1],≥ 1 mg/kg/day
same,LOAEL,[2]; [28],> 150 mg/kg/day
same,NOAEL,[2]; [28],≥ 150 mg/kg/day
same,NEL,[2]; systemic / clinical chemistry / [other] / [other] + systemic / clinical chemistry / albumin / albumin + systemic / clinical chemistry / …,1 mg/kg/day
same,LEL,[3],1 mg/kg/day
same,LOAEL,[3],> 150 mg/kg/day
same,NEL,[3],< 1 mg/kg/day
same,NOAEL,[3],≥ 150 mg/kg/day
same,LOAEL,[4],> 1 mg/kg/day
same,NOAEL,[4],≥ 1 mg/kg/day
same,LOAEL,[5]; [29],> 50 mg/kg/day
same,NEL,[5]; [29],1 mg/kg/day
same,NOAEL,[5]; [29],≥ 50 mg/kg/day
same,LEL,[5]; [30],10 mg/kg/day
same,LOAEL,[6]; [31],> 5 mg/kg/day
same,NOAEL,[6]; [31],≥ 5 mg/kg/day
same,LOAEL,[6]; [32],> 5 mg/kg/day
same,NOAEL,[6]; [32],≥ 5 mg/kg/day
same,LOAEL,[7]; [33],> 1000 mg/kg/day
same,NOAEL,[7]; [33],≥ 1000 mg/kg/day
same,LEL,[7]; systemic / in life observation / clinical signs / hunched posture,300 mg/kg/day
same,LOAEL,[8]; [34],> 500 mg/kg/day
same,NOAEL,[8]; [34],≥ 500 mg/kg/day
same,LEL,[8]; [35],25 mg/kg/day
same,NEL,[8]; [35],< 25 mg/kg/day
same,LEL,[9]; [36],1 mg/kg/day
same,NEL,[9]; [36],< 1 mg/kg/day
same,LOAEL,[9]; [37],> 300 mg/kg/day
same,NOAEL,[9]; [37],≥ 300 mg/kg/day
same,LOAEL,[10]; [29],> 50 mg/kg/day
same,NEL,[10]; [29],1 mg/kg/day
same,NOAEL,[10]; [29],≥ 50 mg/kg/day
same,LEL,[10]; [30],10 mg/kg/day
same,LEL,[11],1 mg/kg/day
same,LOAEL,[11],> 1 mg/kg/day
same,NEL,[11],< 1 mg/kg/day
same,NOAEL,[11],≥ 1 mg/kg/day
same,LOAEL,[12],> 150 mg/kg/day
same,NEL,[12],1 mg/kg/day
same,NOAEL,[12],≥ 150 mg/kg/day
CN1COCN(Cc2cnc(Cl)s2)/C1=N/[N+](=O)[O-] [Thiamethoxam],LEL,[13],21 mg/kg/day
same,LOAEL,[13],21 mg/kg/day
same,NEL,[13],4.05 mg/kg/day
same,NOAEL,[13],4.05 mg/kg/day
same,LOAEL,[14]; systemic / pathology microscopic / kidney / dilatation + systemic / pathology microscopic / adrenal gland / fatty change,300 mg/kg/day
same,NEL,[14]; [38],100 mg/kg/day
same,NOAEL,[14]; [38],100 mg/kg/day
same,LEL,[14]; systemic / pathology microscopic / kidney / dilatation + systemic / pathology microscopic / adrenal gland / fatty change + systemic / …,300 mg/kg/day
same,LOAEL,[15]; [39],81.7 mg/kg/day
same,NOAEL,[15]; [39],8.04 mg/kg/day
same,LEL,[15]; [40],8.04 mg/kg/day
same,NEL,[15]; [40],< 8.04 mg/kg/day
same,LEL,[16]; [41],150 mg/kg/day
same,LOAEL,[16]; [41],150 mg/kg/day
same,NEL,[16]; [41],50 mg/kg/day
same,NOAEL,[16]; [41],50 mg/kg/day
same,LEL,[16]; [32],50 mg/kg/day
same,LOAEL,[16]; [32],50 mg/kg/day
same,NEL,[16]; [42],10 mg/kg/day
same,NOAEL,[16]; [42],10 mg/kg/day
same,LEL,[17]; [43],17.6 mg/kg/day
same,LOAEL,[17]; [43],17.6 mg/kg/day
same,NEL,[17]; [44],1.74 mg/kg/day
same,NOAEL,[17]; [44],1.74 mg/kg/day
same,LEL,[18],250 mg/kg/day
same,LOAEL,[18],250 mg/kg/day
same,NEL,[18],60 mg/kg/day
same,NOAEL,[18],60 mg/kg/day
same,LEL,[19]; [45],14.3 mg/kg/day
same,LOAEL,[19]; [45],14.3 mg/kg/day
same,NEL,[19]; [46],1.41 mg/kg/day
same,NOAEL,[19]; [46],1.41 mg/kg/day
same,LEL,[20],63 mg/kg/day
same,LOAEL,[20],63 mg/kg/day
same,NEL,[20],21 mg/kg/day
same,NOAEL,[20],21 mg/kg/day
same,LEL,[21],32 mg/kg/day
same,LOAEL,[21],32 mg/kg/day
same,NEL,[21],8.23 mg/kg/day
same,NOAEL,[21],8.23 mg/kg/day
same,LEL,[22]; systemic / pathology microscopic / liver / proliferation,72 mg/kg/day
same,LOAEL,[22]; [47],> 386 mg/kg/day
same,NEL,[22]; [47],16 mg/kg/day
same,NOAEL,[22]; [47],≥ 386 mg/kg/day
same,LEL,[23]; [48],150 mg/kg/day
same,LOAEL,[23]; [48],150 mg/kg/day
same,NEL,[23]; [48],50 mg/kg/day
same,NOAEL,[23]; [48],50 mg/kg/day
same,LEL,"[23]; group: maternal, systemic / in life observation / food consumption / food consumption",50 mg/kg/day
same,LOAEL,[23]; [49],150 mg/kg/day
same,NEL,[23]; [49],15 mg/kg/day
same,NOAEL,[23]; [49],50 mg/kg/day
same,NEL,[24]; systemic / organ weight / liver / relative to body weight + systemic / pathology microscopic / liver / hypertrophy + systemic / pathology …,479 mg/kg/day
same,LOAEL,[24]; [50],63.8 mg/kg/day
same,NOAEL,[24]; [50],2.63 mg/kg/day
same,LEL,[25]; [41],1000 mg/kg/day
same,LOAEL,[25]; [41],1000 mg/kg/day
same,NEL,[25]; [41],500 mg/kg/day
same,NOAEL,[25]; [41],500 mg/kg/day
same,LOAEL,"[25]; group: maternal, systemic / in life observation / body weight / body weight gain",500 mg/kg/day
same,LEL,[25]; [51],500 mg/kg/day
same,NEL,[25]; [51],100 mg/kg/day
same,NOAEL,[25]; [51],100 mg/kg/day
same,LEL,[26],43 mg/kg/day
same,LOAEL,[26],43 mg/kg/day
same,NEL,[26],32.6 mg/kg/day
same,NOAEL,[26],32.6 mg/kg/day
same,LOAEL,[27]; [52],750 mg/kg/day
same,NEL,[27]; [52],30 mg/kg/day
same,NOAEL,[27]; [52],200 mg/kg/day
same,LEL,"[27]; group: developmental, developmental / developmental malformation / bone / incomplete ossification + developmental / developmental malformation / bone / short …",200 mg/kg/day
same,LEL,[27]; [53],200 mg/kg/day
same,LOAEL,[27]; [53],200 mg/kg/day
same,NEL,[27]; [53],30 mg/kg/day
same,NOAEL,[27]; [53],30 mg/kg/day
